Data on 5 compounds can be found in patent publication US6596498B1, “Bone stimulating factor” (Osteopharm Inc., priority 1993, dated 2003).

“Also recorded” adds a separate entry of the source. Ends that are not written are not given here.

Data set [1] concerns intact rats. Description: Bone mineral apposition rate by tetracycline labelling in intact rats. The data set is classed as in vivo, rat.
Data set [2] has as its system parathyroidectomized rats. Description: Histological evaluation of selected tissues for toxic lesions after miniosmotic pump implantation. The data set is classed as in vivo, rat. The following applies: about 25 μg per day by miniosmotic pump, about 31 days. How it is done: A miniosmotic pump (Alzet) was loaded with about 1.5 ml of the chemically synthesized peptide having an N-terminal acetyl group (SEQ ID NO:12) in 0.1% acetic acid so as to give a calculated daily delivery of about 25 μg per day. A pump was implanted under the subcutaneous fascia of the dorsal aspect of the left side of the thorax of five rats which had been parathyroidectomized seven days earlier. Five similarly parathyroidectomized rats received similar implants containing only 0.1% acetic acid. Five intact rats were also used as controls.
Histological evaluation of selected tissues of the five rats of each of the groups indicated in Table Four were carried out microscopically.

In data set [3] the test system is ovariectomized rats. Description: Autopsy of ovariectomized rats after daily peptide injection. The class given is in vivo, rat. The note with it: 100 μg s.c. daily for eight weeks. How it is done:
The six ovariectomized rats were injected subcutaneously with 100 μl of a 0.1% acetic acid solution containing 100 μg of the chemically synthesized peptide (SEQ ID NO:11) every 24 hours for 28 days. […] Postmortem blood was taken by cardiac puncture and serum frozen until analyzed. A full autopsy was performed on each rat. […] Eight weeks after ovariectomization, five ovariectomized rats were injected subcutaneously with 100 μl of a 0.1% acetic acid solution containing 100 μg of the chemically synthesized peptide in which the N-terminal amino group was modified with an acetyl group (SEQ ID NO:12). This was done every 24 hours for eight weeks. […] Postmortem blood was taken by cardiac puncture and serum frozen until analyzed. An autopsy was performed on each rat.

The test system of data set [4] is intact rats. The data set is described as follows: Bone mineral apposition rate by tetracycline labelling in intact rats. The data set is classed as in vivo, rat. From the text: Tetracycline is excited by long UV light (i.e., with a range close to the blue range) and a bright yellow fluorescence is emitted, which fluorescence is detectable in bone sections viewed with a fluorescence microscope. Tetracycline labels a bone surface when a newly formed collagen matrix begins to incorporate calcium and when such surface is sectioned, the tetracycline appears as a yellow fluorescent band. A subsequently administered dose of tetracycline appears as a second band located superficial to the first band. The distance between the two bands represent the thickness of bone matrix formed in the interval between the two doses. The rate of bone deposition can be calculated by dividing the distance with the time interval between doses. Errors can be introduced by cuts which are not perpendicular to the growing bone surface. To reduce this error, only sites in which the two bands were distinct and parallel to each other were used. Measurements made on 10 randomly chosen sites fulfilling this requirement were chosen to give readings close to the arithmetic mean of the rate.
The measuring system used was a Leitz scanning light microscope photometer MPV-CD with a UV source being provided by a 100 W stabilized mercury burner. Sections were generally magnified using 16× objective using a moving scanning slit, the intensity of the fluorescent band was amplified and recorded. The light signal was transformed into digital output and the profile of the tetracycline intensity recorded. The instrument carries a mechanical error of less than 5%. The distance measured was periodically calibrated with a microscopic grid and a good correlation was found, as shown in FIG. 2.
Intact 400-420 g male rats were used for testing. A control group received the carrier buffer of 50 mM sodium phosphate (pH 7.2). […]
The unstained plastic embedded sections were viewed under a fluorescence microscope with a ×16 objective and ×10 eyepieces systematically to cover the trabecular bone in the space enclosed by the endosteal surface. […]
The source holds these as a separate data set.

The subject of data set [5] is ovariectomized rats. The data set is described as follows: Bone mineral apposition rate in ovariectomized rats. The note with it: 100 μg s.c. every 24 hours for 28 days; lower metaphysis of left femur; untreated OVX 0.59, sham 0.85, intact 0.86. The data set is classed as in vivo, rat. Here is the method: Ovariectomies were performed on six female Sprague-Dawley rats, each sedated with 1 mg of sodium barbiturate I.P. Sham operations were carried out a second group of six rats. The rats were given two weeks to recover from the operations. The six ovariectomized rats were injected subcutaneously with 100 μl of a 0.1% acetic acid solution containing 100 μg of the chemically synthesized peptide (SEQ ID NO:11) every 24 hours for 28 days. […] A second group of six ovariectomized rats, was similarly treated with a 0.1% acetic acid solution containing no peptide over the same 28 day period. A third group of six rats, each of which had undergone the sham operation, was similarly treated with a 0.1% acetic acid solution containing no peptide over the same 28 day period. A fourth group of six intact rats was similarly treated with a 0.1% acetic acid solution containing no peptide over the same 28 day period. The bone mineral apposition rate was determined, as described previously, by measurement of the lower metaphysis of the left femur. The results are tabulated in Table Six and graphically depicted in FIG. 25.

Data set [6] relates to ovariectomized rats. The data set is described as follows: Right femoral bone calcium density of ovariectomized rats. The class given is in vivo, rat. How it is done: Ovariectomies were performed on six female Sprague-Dawley rats, each sedated with 1 mg of sodium barbiturate I.P. Sham operations were carried out a second group of six rats. The rats were given two weeks to recover from the operations. The six ovariectomized rats were injected subcutaneously with 100 μl of a 0.1% acetic acid solution containing 100 μg of the chemically synthesized peptide (SEQ ID NO:11) every 24 hours for 28 days. […] The right femur of each rat was decalcified separately. The decalcification fluid consisted of 10% formic acid (v/v) and 5% sodium citrate (w/v) at pH 3.0. Each bone was placed in 6 ml of the decalcification fluid. The fluid was […] days, again after another 4 days, again after another 2 days, and again after another 3 days. After another 2 days, the decalcification fluid was removed and replaced by deionized water, and the sample agitated for 2 days. The water changed after two days and again after another day. […] The volume of each right femur was determined by determining the volume of water displaced when the bone was immersed in water. The calcium concentration of each sample was determined according to standard methods and the calcium density of each bone calculated. […] The right femurs were decalcified and calcium density determined as before.

The conditions of data set [7]: 24 mg/kg of body weight intravenously, rat; serum level by bioassay; cited from earlier work.
Where [8] appears, read: 0.1 ml of 1 mg per ml solution, subcutaneous, right thigh, lower metaphysis of right femur, control 1.02.

Turning to “GIGKRTNEHTADAKIKPNTLHKKAAETLMVLDQNQP [SEQ ID NO:13]”, in the data set with intact rats [1] (0.1 ml of 1 mg per ml solution s.c., compared with control and normal peptide), the bone apposition rate entry is listed as “significantly greater than that for those of the control group but below the bone apposition rate shown for the rats injected with the normal peptide”. For the same compound, the “bone mineral apposition rate, Mean” value with intact rats [1] (setting [8]) was 1.35 μm/d.

In the case of “Ac-GIGKRTNEHTADCKIKPNTLHKKAAETLMVLDQNQP [SEQ ID NO:12]”, in data set [2], the “histological evaluation of selected tissues (toxic lesions)” value is recorded as “No evidence of toxic lesions was found”. Also, the pathology at autopsy result in the data set on ovariectomized rats [3] is on record as “No obvious pathology was observed”.

As to “expressed polypeptide: human polypeptide (SEQ ID NO:11 sequence) expressed in E. coli JM 103 from pUC 8 plasmid, purified by C3 HPLC (GIGKRTNEHTADCKIKPNTLHKKAAETLMVLDQNQP)”, in the data set on intact rats [4] (0.7 and 0.3 O.D. (280 nm) units injected, intact 400-420 g male rats vs carrier buffer), the “effect on bone formation” value is listed as “appears to have a stimulant effect on bone formation; also recorded: showed biological activity”.

As to “GIGKRTNEHTADCKIKPNTLHKKAAETLMVLDQNQP [SEQ ID NO:11]”, the “bone mineral apposition rate, Mean” value in the data set with ovariectomized rats [5] is 0.90 μm/day; in the data set with intact rats [1] (50 μg single intramuscular injection, lower femoral epiphysis, control 0.85), 1.15 μm/day; with intact rats [1] (100 μg single intramuscular injection, lower femoral epiphysis, control 0.85), 1.32 μm/day; in the data set with intact rats [1] (setting [8]), 1.67 μm/d; with intact rats [4] (25 μg single intramuscular injection, lower femoral epiphysis, control 0.85), 1.05 μm/day. Also, the “dose dependency of stimulant effect” value with intact rats [1] (25-100 μg, intramuscular) is given as “increases with the amount of peptide administered”. For the same compound, the “bone apposition rate, Mean” value in the data set on intact rats [4] (25 μg in 1 ml, single intramuscular injection, lower metaphysis of right femur, vehicle control 1.03) worked out at 1.35 μm/d. Moreover, in the data set with ovariectomized rats [6] (100 μg s.c. daily for 28 days, ovariectomized rats), the bone calcium concentration result is “appears to be normal”. Moreover, the “Right Femoral Calcium Concentration, Mean” value in the data set on ovariectomized rats [6] (100 μg s.c. every 24 hours for 28 days, starting two weeks after ovariectomy, untreated OVX 6.61, sham 7.45, intact 7.69) was found to be 7.57 µmol/mL.

For the compound `CN(C)[C@@H]1C(O)=C(C(N)=O)C(=O)[C@@]2(O)C(O)=C3C(=O)c4c(O)cccc4[C@@](C)(O)[C@H]3C[C@@H]12` [tetracycline], the “clearance from the circulation” value in data set [7] is “cleared from the circulation within half an hour”.
